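Results reflect a 48-hour exposure of cells in 96-well plates to compound at five concentrations. TGI: total growth inhibition.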
Tests used:
Test in all cases: inhibition of tumour cell growth, NCI panel, 48 h
SNB-75 CNS = system: SNB-75 CNS
HOP-62 NSCLC = system: HOP-62 NSCLC
SK-MEL-2 melanoma = system: SK-MEL-2 melanoma
RPMI-8226 leukemia = system: RPMI-8226 leukemia
HOP-92 NSCLC = system: HOP-92 NSCLC
SF-268 CNS = system: SF-268 CNS
HCT-116 colon = system: HCT-116 colon
OVCAR-3 ovarian = system: OVCAR-3 ovarian
NCI-H460 lung = system: NCI-H460 lung
SK-OV-3 ovarian = system: SK-OV-3 ovarian
SF-539 CNS = system: SF-539 CNS
MOLT-4 leukemia = system: MOLT-4 leukemia
SW-620 colon = system: SW-620 colon
SNB-19 CNS = system: SNB-19 CNS
SN12C renal = system: SN12C renal

SMILES | TGI (SNB-75 CNS) [µM] | TGI (HOP-62 NSCLC) [µM] | TGI (SK-MEL-2 melanoma) [µM] | TGI (RPMI-8226 leukemia) [µM] | TGI (HOP-92 NSCLC) [µM] | TGI (SF-268 CNS) [µM] | TGI (HCT-116 colon) [µM] | TGI (OVCAR-3 ovarian) [µM] | TGI (NCI-H460 lung) [µM] | TGI (SK-OV-3 ovarian) [µM] | TGI (SF-539 CNS) [µM] | TGI (MOLT-4 leukemia) [µM] | TGI (SW-620 colon) [µM] | TGI (SNB-19 CNS) [µM] | TGI (SN12C renal) [µM]
C/C(=N\NC(=O)C[N+](C)(C)C)c1sc(-c2cccnc2)nc1C | > 100 | > 100 | > 100 | > 100 | > 100 | > 100 | > 100 | > 100 | > 100 | > 100 | > 100 | > 100 | > 100 | – | –
N#Cc1ccc(/C=C(/C(=O)c2ccccc2)c2ccccc2)cc1 | > 57.2 | 40.2 | 33.2 | 8.82 | 39.7 | 41.1 | 11.3 | 48.4 | 47.5 | > 54.6 | 42 | 10.4 | 7.31 | 50.1 | 25
COc1ccc2c3c([nH]c(=O)c2c1C(=O)O)-c1ccccc1CC3 | > 100 | > 100 | > 100 | > 100 | > 100 | > 100 | > 100 | > 100 | > 100 | > 100 | > 100 | > 100 | > 100 | > 100 | > 100
CC(C)(C)C1CCC2c3c([nH]c4ncccc34)C3C(=O)N(c4ccccc4)C(=O)C3C2C1 (stereo not given) | > 100 | > 100 | > 100 | > 100 | > 100 | > 100 | > 100 | > 100 | > 100 | > 100 | > 100 | > 100 | > 100 | > 100 | > 100
CCOC(=O)C(C)Sc1nnc(COc2ccc(Cl)cc2)n1-c1ccccc1 (stereo not given) | > 100 | 37.5 | 28.4 | 45.7 | 44 | 34.7 | 36.5 | 33.5 | 31.6 | > 100 | 36.9 | – | 27.2 | 40.1 | 32.9
CCO/S(=N/S(=O)(=O)c1ccccc1)c1ccccc1[N+](=O)[O-] (stereo not given) | > 100 | > 100 | > 100 | > 100 | – | > 100 | – | > 100 | > 100 | > 100 | > 100 | > 100 | > 100 | > 100 | > 100
O=c1[nH]c2cc([N+](=O)[O-])ccc2nc1/C(=N/Nc1ccccc1)C(O)c1ccco1 (stereo not given) | > 100 | > 100 | > 100 | > 100 | – | > 100 | > 100 | – | > 100 | – | > 100 | > 100 | > 100 | > 100 | > 100
N#C/C(c1nc2ccccc2[nH]1)=c1\s/c(=C(/N)O)c(=N)n1-c1ccccc1 | > 100 | > 100 | > 100 | – | > 100 | > 100 | > 100 | > 100 | > 100 | > 100 | > 100 | > 100 | > 100 | > 100 | > 100
COc1cc2c(oc(=O)c3c4occc4cc(OC)c23)c2cccc(OCc3ccccc3)c12 | > 100 | > 100 | > 100 | > 100 | > 100 | > 100 | > 100 | > 100 | > 100 | > 100 | > 100 | > 100 | > 100 | > 100 | > 100
Cc1ccc(S(=O)(=O)N/N=C(\c2nc3ccc([N+](=O)[O-])cc3[nH]c2=O)C(O)c2ccc([N+](=O)[O-])cc2)cc1 (stereo not given) | > 100 | > 100 | > 100 | > 100 | > 100 | > 100 | – | > 100 | > 100 | > 100 | > 100 | > 100 | > 100 | > 100 | > 100
O=C(c1ccco1)N(C(=S)N1CCN(c2ccccc2)CC1)C1CCCCC1 | > 100 | > 100 | > 100 | > 100 | > 100 | > 100 | > 100 | > 100 | > 100 | > 100 | > 100 | > 100 | > 100 | > 100 | > 100
O=C(O)[C@@H]1OCCOCCO[C@@H](C(=O)O)[C@H](C(=O)O)OCCOCCO[C@H]1C(=O)O | > 100 | > 100 | > 100 | > 60.9 | > 100 | > 100 | > 100 | > 100 | > 100 | > 100 | > 100 | > 100 | > 90.1 | > 100 | > 100

— PubChem BioAssay (NCI)
